Measured values as given in ChEMBL document CHEMBL1147725, “Identification and biological characterization of 6-aryl-7-isopropylquinazolinones as novel TRPV1 antagonists that are effective in models of chronic pain” (J Med Chem, 2006).
Calls of active or inactive are those of the source. No cut-off for these calls is given here.

Legend:
[1] = biological target: Transient receptor potential cation channel subfamily V member 1 (Homo sapiens, UniProt Q8NER1); assay: Inhibition of calcium influx evoked by capsaicin in human TRPV1 expressing cells by fluorescence assay; assay type: functional
[2] = biological target: Transient receptor potential cation channel subfamily V member 1 (Rattus norvegicus) (UniProt O35433); assay: Inhibition of calcium influx evoked by capsaicin in rat TRPV1 expressing cells by fluorescence assay; assay type: functional, cell-based
Chain of Transient receptor potential cation channel subfamily V member 1 (Rattus norvegicus) (O35433 whole entry): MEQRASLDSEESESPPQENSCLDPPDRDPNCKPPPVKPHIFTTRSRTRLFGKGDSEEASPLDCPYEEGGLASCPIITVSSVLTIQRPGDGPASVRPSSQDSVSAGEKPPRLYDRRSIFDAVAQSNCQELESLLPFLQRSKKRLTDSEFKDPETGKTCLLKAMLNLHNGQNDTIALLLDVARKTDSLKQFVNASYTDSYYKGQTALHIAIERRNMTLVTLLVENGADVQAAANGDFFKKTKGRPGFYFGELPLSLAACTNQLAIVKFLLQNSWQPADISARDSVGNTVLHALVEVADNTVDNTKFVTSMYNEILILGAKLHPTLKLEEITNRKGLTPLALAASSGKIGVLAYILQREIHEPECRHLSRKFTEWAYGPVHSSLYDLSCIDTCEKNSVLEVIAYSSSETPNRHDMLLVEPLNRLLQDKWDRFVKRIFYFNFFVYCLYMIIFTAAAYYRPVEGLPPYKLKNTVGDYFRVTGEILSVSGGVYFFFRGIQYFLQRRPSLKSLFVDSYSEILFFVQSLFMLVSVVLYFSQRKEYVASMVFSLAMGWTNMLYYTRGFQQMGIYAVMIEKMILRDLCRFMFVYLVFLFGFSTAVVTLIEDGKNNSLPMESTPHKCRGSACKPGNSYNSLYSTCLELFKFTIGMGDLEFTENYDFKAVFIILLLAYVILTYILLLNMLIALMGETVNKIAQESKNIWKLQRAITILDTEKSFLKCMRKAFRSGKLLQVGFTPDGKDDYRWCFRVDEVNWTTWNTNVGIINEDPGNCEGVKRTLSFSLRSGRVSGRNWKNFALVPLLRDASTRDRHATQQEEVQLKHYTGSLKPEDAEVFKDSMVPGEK

Chain of Transient receptor potential cation channel subfamily V member 1 (Q8NER1 whole entry): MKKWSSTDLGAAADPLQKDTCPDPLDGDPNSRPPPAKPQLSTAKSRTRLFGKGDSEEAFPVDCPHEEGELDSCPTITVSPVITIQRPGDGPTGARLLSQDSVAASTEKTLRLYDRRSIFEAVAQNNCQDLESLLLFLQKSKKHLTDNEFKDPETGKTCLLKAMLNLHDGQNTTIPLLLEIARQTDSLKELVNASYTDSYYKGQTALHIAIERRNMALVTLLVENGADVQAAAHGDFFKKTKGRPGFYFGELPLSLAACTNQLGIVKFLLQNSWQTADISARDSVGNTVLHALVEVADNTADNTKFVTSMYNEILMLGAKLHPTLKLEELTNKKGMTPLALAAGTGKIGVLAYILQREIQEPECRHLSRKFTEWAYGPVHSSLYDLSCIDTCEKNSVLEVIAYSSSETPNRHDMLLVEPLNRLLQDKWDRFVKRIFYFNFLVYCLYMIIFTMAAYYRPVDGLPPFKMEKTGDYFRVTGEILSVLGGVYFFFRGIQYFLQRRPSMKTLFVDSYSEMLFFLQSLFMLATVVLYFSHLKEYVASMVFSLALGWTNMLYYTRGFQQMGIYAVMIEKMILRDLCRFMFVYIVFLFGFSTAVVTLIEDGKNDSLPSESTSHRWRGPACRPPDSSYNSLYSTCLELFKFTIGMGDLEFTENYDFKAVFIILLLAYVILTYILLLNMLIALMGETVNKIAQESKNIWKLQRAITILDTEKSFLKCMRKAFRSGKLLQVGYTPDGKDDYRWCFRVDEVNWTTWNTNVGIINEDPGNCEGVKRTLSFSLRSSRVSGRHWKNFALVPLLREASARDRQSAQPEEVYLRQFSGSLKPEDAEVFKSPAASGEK

Compound | IC50 [1] | Activity [2] | Activity [1]
CCc1nc2cc(C(C)C)c(-c3ccc(Cl)cc3)cc2c(=O)[nH]1 | > 1 µM | – | –
CC(C)(C)c1nc2nc(S)nc(O)c2cc1-c1ccc(Cl)cc1 | – | inactive | inactive
Cc1nc(O)c2cc(-c3ccc(Cl)c(OCCO)c3)c(C(C)C)cc2n1 | 0.557 µM | – | –

The remaining compounds from weak to strong by IC50 [1], led by results:

IC50 [1] | Activity [2] | Activity [1] | Compound
0.487 µM | – | – | Cc1nc2cc(C(C)C)c(-c3ccc(Cl)c(OCCN(C)C)c3)cc2c(=O)[nH]1
0.286 µM | – | – | CCOc1cc(-c2cc3c(=O)[nH]c(C)nc3cc2C(C)C)ccc1OC
0.201 µM | – | – | Cc1nc(O)c2cc(-c3ccc(Cl)c(OC(C)C)c3)c(C(C)C)cc2n1
